Data on one compound can be found in paper PMC4694659, “Biochemical Characterization of Medaka (Oryzias latipes) Transglutaminases, OlTGK1 and OlTGK2, as Orthologues of Human Keratinocyte-Type Transglutaminase” (PLoS ONE, 2015).

The target of one assay is T1, OlTGK2 (Oryzias latipes, UniProt A0A0S3Q1B1).
T1 construct: full-length ORF (2340 bp, 778 residues as printed), N-terminal hexahistidine tag, pET24d, E. coli BL21(DE3)LysS; NBRP cDNA clone olsp48d24 (fish kept: Cab strain)
T1 sequence (A0A0S3Q1B1 1-779): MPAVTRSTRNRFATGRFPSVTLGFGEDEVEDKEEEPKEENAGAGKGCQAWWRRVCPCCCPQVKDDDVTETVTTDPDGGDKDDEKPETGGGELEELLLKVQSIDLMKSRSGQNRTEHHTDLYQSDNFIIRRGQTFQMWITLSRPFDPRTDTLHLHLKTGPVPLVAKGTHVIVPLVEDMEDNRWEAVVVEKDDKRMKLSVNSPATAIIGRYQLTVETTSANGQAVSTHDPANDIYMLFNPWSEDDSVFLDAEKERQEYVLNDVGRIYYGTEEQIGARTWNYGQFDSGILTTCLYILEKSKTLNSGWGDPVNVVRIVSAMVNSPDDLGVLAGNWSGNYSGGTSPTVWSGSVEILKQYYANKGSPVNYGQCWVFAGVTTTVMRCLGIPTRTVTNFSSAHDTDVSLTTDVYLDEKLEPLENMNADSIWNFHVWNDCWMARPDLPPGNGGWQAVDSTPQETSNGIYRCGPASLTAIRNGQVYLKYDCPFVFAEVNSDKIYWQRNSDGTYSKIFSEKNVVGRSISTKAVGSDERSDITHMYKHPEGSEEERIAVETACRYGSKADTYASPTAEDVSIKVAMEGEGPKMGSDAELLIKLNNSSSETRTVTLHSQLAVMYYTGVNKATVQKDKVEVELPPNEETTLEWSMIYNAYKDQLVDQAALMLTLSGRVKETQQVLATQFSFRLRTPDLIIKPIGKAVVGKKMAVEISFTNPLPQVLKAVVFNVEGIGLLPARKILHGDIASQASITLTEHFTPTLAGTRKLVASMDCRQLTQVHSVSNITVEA
Put plainly: microplate transamidation: incorporation of bio-Cd into coated beta-casein, streptavidin-peroxidase read-out. The class given is biochemical. The note with it: amine acceptor substrate; co-substrate beta-casein (coated); CaCl2; Tris-Cl pH 8.0; 25 °C; 20 min; labelled compound.

The next assay addresses T2, OlTGK1 (Oryzias latipes, UniProt A0A0S3Q197).
T2 construct: full-length ORF (2067 bp, 688 residues), N-terminal hexahistidine tag, pET24d, E. coli BL21(DE3)LysS; cDNA cloned from embryonic medaka cDNA library (fish kept: Cab strain)
T2 sequence (A0A0S3Q197 1-688): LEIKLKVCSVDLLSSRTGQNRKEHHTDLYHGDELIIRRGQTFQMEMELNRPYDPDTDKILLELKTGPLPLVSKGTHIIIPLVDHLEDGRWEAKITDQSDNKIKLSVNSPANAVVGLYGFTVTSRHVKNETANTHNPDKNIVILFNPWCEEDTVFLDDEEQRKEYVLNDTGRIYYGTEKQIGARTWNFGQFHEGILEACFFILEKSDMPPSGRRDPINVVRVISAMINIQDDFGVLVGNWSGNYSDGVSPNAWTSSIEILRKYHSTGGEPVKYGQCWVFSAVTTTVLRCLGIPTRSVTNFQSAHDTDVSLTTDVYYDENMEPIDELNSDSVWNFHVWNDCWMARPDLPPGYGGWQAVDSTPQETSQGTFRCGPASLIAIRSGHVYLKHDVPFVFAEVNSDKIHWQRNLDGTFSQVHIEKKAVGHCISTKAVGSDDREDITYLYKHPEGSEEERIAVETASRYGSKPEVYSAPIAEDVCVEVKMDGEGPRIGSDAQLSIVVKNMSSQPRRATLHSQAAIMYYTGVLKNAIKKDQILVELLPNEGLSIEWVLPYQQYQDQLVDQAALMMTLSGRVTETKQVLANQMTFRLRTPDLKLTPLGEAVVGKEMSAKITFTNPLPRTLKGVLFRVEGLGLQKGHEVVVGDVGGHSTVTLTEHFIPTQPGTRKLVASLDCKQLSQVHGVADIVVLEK
The assay is described as above. The note with it: amine acceptor substrate; co-substrate beta-casein (coated); CaCl2; Tris-Cl pH 8.0; 25 °C; 20 min; labelled compound. The class given is biochemical.

As to `NCCCCCNC(=O)CCCC[C@@H]1SC[C@@H]2NC(=O)N[C@@H]21` [bio-Cd], the “microplate transamidation: incorporation of bio-Cd into coated beta-casein, stre” value at OlTGK2 is “apparent incorporation was observed in the presence of three-different amounts of OlTGK1 and OlTGK2”; at OlTGK1, “apparent incorporation was observed in the presence of three-different amounts of OlTGK1 and OlTGK2”.
